Results: patent US20220202756A1, “GENETIC VARIANTS ASSOCIATED WITH RESPONSE TO TREATMENT OF NEUROLOGICAL DISORDERS” (VISTAGEN THERAPEUTICS, INC., priority 2019, published 2022)

Tests used:
[1] = tested on: Human brain endothelial cells; test: AV-101 uptake in human brain endothelial cells; format: cell-based
Description: The L-Type Amino Acid Transporter 1 (LAT1, SLC7A5) is part of the SLC7 family and forms a heterodimer with CD98 via a disulphide bond (Mastroberardino, L. et al. Amino-acid transport by heterodimers of 4F2hc/CD98 and members of a permease family. Nature 395, 288-291, doi: 10.1038/26246 (1998)). CD98 (4F2hc, SLC3A2) is a type II glycoprotein that functions as a chaperone for LAT1, stabilizing and facilitating its translocation to the plasma membrane. LAT1 is the functional unit of the complex (Napolitano, L. et al. LAT1 is the transport competent unit of the LAT1/CD98 heterodimeric amino acid transporter. The international journal of biochemistry & cell biology, doi: 10.1016/j.biocel.2015.08.004 (2015)) and substrates include a range of large neutral amino acids such as tyrosine, leucine, isoleucine, valine and phenylalanine as well as pharmaceutical drugs including L-DOPA and gabapentin. (Dickens, D. et al. Transport of gabapentin by LAT1 (SLC7A5). Biochem Pharmacol 85, 1672-1683, doi: 10.1016/j.bcp.2013.03.022 (2013); Uchino, H. et al. Transport of amino acid-related compounds mediated by L-type amino acid transporter 1 (LAT1): insights into the mechanisms of substrate recognition. Molecular pharmacology 61, 729-737 (2002)). […]

LAT1 transporter = molecular target: T1, LAT1 transporter (Homo sapiens, UniProt Q01650); test: AV-101 uptake in HEK-293 cells overexpressing LAT1; format: cell-based
T1 construct: expressed in transfected cells; host or cells: HEK-293
Description: The L-Type Amino Acid Transporter 1 (LAT1, SLC7A5) is part of the SLC7 family and forms a heterodimer with CD98 via a disulphide bond (Mastroberardino, L. et al. Amino-acid transport by heterodimers of 4F2hc/CD98 and members of a permease family. Nature 395, 288-291, doi: 10.1038/26246 (1998)). CD98 (4F2hc, SLC3A2) is a type II glycoprotein that functions as a chaperone for LAT1, stabilizing and facilitating its translocation to the plasma membrane. LAT1 is the functional unit of the complex (Napolitano, L. et al. LAT1 is the transport competent unit of the LAT1/CD98 heterodimeric amino acid transporter. The international journal of biochemistry & cell biology, doi: 10.1016/j.biocel.2015.08.004 (2015)) and substrates include a range of large neutral amino acids such as tyrosine, leucine, isoleucine, valine and phenylalanine as well as pharmaceutical drugs including L-DOPA and gabapentin. (Dickens, D. et al. Transport of gabapentin by LAT1 (SLC7A5). Biochem Pharmacol 85, 1672-1683, doi: 10.1016/j.bcp.2013.03.022 (2013); Uchino, H. et al. Transport of amino acid-related compounds mediated by L-type amino acid transporter 1 (LAT1): insights into the mechanisms of substrate recognition. Molecular pharmacology 61, 729-737 (2002)). The SLC7A5 locus with rsid rs28582913 has a single nucleotide polymorphism, wherein the minor allele, T instead of C, at position 87843494 on chromosome 16, is present in approximately 18-56% of the population depending on ethnicity (https://www.ncbi.nlm.nih.gov/snp/rs28582913#frequency_tab), and results in a 1.94 fold increase in the kynurenine metabolite. […] Additionally, physiological amino acids reduce LAT1 mediated transport of AV-101.

[2] = tested on: depression, major depressive disorder; test: Treatment of depression / MDD in genotyped subjects; format: in vivo, human
Description: In subjects with the BDNF variant, the A allele of the SNP rs6265 a higher dose of the L-4-CI-KYN results in the mood-enhancing or anti-depressive response. Subjects affirmatively report feelings of well-being. This is consistent with reports that the glutamatergic system contributes to the pathophysiology of depression and that stress can induce changes in NMDA receptors. See, for example, Calabrese, et al., PloS one vol. 7,5 (2012): e37916. Twenty-five subjects, both male and female, ages 18 to 65, with a diagnosis of MDD are treated with either L-4-CI-KYN (1,080 or 1,440 mg/day given orally) for 2 weeks, similar in design to similar studies. See e.g., Ibrahim et al. J Clin Psychopharmacol. 2012 August; 32(4): 551-557; Zarate et al. Biol Psychiatry. 2013 Aug. 15; 74(4):257-64; Zarate et al. Arch Gen Psychiatry. 2006 August; 63(8):856-64; Zarate et al. 2005 Biological psychiatry 57 (4), 430-432. The subjects are pre-screened to be positive for at least one of the following variant SNPs, the T allele of SNP rs61825638, the T allele of SNP rs28582913, or the C allele of rs2121337, or positive for the G allele of rs6265. In addition, a control group of twenty-five subjects is pre-screened as lacking any of: the T allele of SNP rs61825638, the T allele of SNP rs28582913, or the C allele of rs2121337, or lacking the G allele of SNP rs6265. […] Montgomery et al. 1979, Brit. J. Psych., 134:382-389. […]

[3] = cited from earlier work; for crossing of the blood-brain barrier / access to the CNS: after administration

T1 sequence (Q01650 whole entry): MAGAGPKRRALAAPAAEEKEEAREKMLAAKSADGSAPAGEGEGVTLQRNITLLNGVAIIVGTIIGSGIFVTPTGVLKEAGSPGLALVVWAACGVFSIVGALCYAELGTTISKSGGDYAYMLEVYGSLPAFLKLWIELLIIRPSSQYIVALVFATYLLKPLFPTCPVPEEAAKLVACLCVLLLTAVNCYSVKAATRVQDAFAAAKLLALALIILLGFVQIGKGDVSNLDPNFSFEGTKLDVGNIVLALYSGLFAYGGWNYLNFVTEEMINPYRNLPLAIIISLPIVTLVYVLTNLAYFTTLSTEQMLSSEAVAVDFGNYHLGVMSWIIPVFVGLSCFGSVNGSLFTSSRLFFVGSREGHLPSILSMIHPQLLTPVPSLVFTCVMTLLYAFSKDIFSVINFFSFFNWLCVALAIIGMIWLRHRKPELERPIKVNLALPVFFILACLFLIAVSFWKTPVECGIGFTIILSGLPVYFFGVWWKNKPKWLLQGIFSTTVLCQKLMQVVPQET
T1 sequence (P08195 102-630 partner): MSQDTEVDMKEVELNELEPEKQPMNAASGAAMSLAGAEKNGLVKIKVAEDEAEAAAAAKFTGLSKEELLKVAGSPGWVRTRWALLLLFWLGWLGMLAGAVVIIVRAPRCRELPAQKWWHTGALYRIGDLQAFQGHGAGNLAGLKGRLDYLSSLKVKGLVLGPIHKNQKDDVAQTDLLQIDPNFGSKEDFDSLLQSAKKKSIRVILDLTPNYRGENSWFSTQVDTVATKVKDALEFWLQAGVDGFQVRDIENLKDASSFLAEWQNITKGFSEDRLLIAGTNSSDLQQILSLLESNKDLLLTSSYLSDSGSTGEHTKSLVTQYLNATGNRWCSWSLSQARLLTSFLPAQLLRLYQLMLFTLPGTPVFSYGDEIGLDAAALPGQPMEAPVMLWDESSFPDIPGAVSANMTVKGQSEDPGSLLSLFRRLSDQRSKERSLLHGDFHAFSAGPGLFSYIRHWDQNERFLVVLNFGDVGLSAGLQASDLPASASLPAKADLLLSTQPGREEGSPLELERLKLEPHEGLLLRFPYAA

Row | SMILES | effect on AV-101 uptake ([1]; in the presence of JPH203) | effect on AV-101 uptake (LAT1 transporter; LAT1 inhibitor added, HEK-293 cells overexpressing LAT1) | AV-101 uptake [1] | substrate status for the LAT1 transporter (LAT1 transporter) | AV-101 uptake (LAT1 transporter; HEK-293 cells overexpressing LAT1) | HDRS and/or MADRS total scores ([2]; MDD subjects, 1,080 or 1,440 mg/day orally for 2 weeks) | mood enhancing or anti-depressive activity ([2]; subjects with KMO rs61825638 T, SLC7A5 rs28582913 T or ACMSD rs2121337 C variant) | crossing of the blood-brain barrier / access to the CNS [3] | conversion to 7-chlorokynurenic acid ([3]; within activated astrocytes)
1 | Nc1cc(COc2c(Cl)cc(C[C@H](N)C(=O)O)cc2Cl)c2oc(-c3ccccc3)nc2c1 [JPH203, reference compound] | significantly diminished | substantially reduced |  |  |  |  |  |  | 
2 | Nc1cc(Cl)ccc1C(=O)CC(N)C(=O)O [L-4-CI-KYN, L-4-chlorokynurenine] |  |  | significant uptake | substrate for the LAT1 transporter | substantial increase | significant decrease | observed for a higher number of subjects, or for the same number of patients but at a lower dose | readily gains access to the central nervous system | efficiently converted
3 | O=C(O)c1cc(O)c2ccc(Cl)cc2n1 [7-chlorokynurenic acid, reference compound] |  |  |  |  |  |  |  | does not cross the blood-brain barrier | 
